Measurements from PubChem BioAssay (NCI).
Several values for one entry are separate records, joined by “and”; a condition that tells them apart may be missing. Identical values can stand only once.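 All cell lines were grown in 96-well plates and treated with compound for 48 hours. Abbreviation: GI50, concentration required for 50% inhibition of growth. The concentration for full growth arrest is given as TGI.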

Tested on: SK-MEL-28 melanoma
Test: NCI tumour cell line growth inhibition, 48 h

Compound | GI50 | TGI
COC(=O)[C@]12CC[C@@H](C)[C@H](C)[C@@H]1C1=CC[C@@H]3[C@@]4(C)C[C@@H](O)[C@H](O)[C@@](C)(CO)C4=CC[C@@]3(C)[C@]1(C)CC2 | 19.2 µM | 40.9 µM
Cc1nc(N)sc1N=Nc1ccccc1Br |  | > 88.1 µM
NS(=O)(=O)c1ccc(N=Nc2c(O)c(C(=O)O)cc3ccccc23)cc1 |  | > 100 µM
Cc1c(N(C)C)ccc2c(=O)c3cccc(CC(=O)O)c3oc12 |  | > 100 µM
CC(NCCC(c1ccccc1)c1ccccc1)c1ccccc1 (stereo not given) | 1.76 µM | 3.26 µM
C/C(N=NC(=S)N1CC2CCC(CC2)C1)=C1\C=CC=CN1O |  | > 100 µM
O=C(Nc1ccc(Br)cc1F)c1cc(Cl)ccc1O | 0.399 µM | 2.07 µM
NC(N)=N/N=C/c1c(Cl)cccc1Cl | 17.6 µM | 34.6 µM
S=c1[nH]c(=S)c2cc3ccccc3nc2[nH]1 | > 100 µM | > 100 µM
O=C(Nc1cccc(C(F)(F)F)c1)c1ccc(NC2=C(Cl)C(=O)N(Cc3ccc(Cl)cc3Cl)C2=O)cc1 | 14.1 µM | 30.9 µM
CCC[CH2][Sn]([CH2]CCC)([O]C(=O)c1ccc(OC)c(OC)c1OC)[O][Sn]([CH2]CCC)([CH2]CCC)[O]C(=O)c1ccc(OC)c(OC)c1OC | 0.25 µM | 0.723 µM

Tested on: HL-60(TB) leukemia
Test: NCI tumour cell line growth inhibition, 48 h

Compound | GI50 | TGI
N#Cc1nn(-c2cc(=O)[nH]c3ccc(Cl)cc23)c(N)c1C#N | > 100 µM | > 100 µM
NNC(=O)CNc1cccc(Br)c1 |  | > 100 µM
NC(N)=NCCCC(=O)O |  | > 100 µM
CCN1CCN(c2cc(C)c3cc(NC(=O)c4ccc(OC)c(OC)c4)ccc3n2)CC1 | 4.19 µM | > 44.8 µM
COC(=O)c1c2c(c(C)[n+]([O-])c1C)C(=O)C=C(NCc1ccc(F)cc1)C2=O | 0.454 µM | 1.92 µM
CCCC(=O)Nc1cn(COC)c(C(=O)N2C[C@@H]3C[C@]34C2=CC(=O)c2[nH]cc(C)c24)n1 |  | 4.9 µM
CNCCOC(=O)/C=C1\CC[C@H]2[C@@H]([C@@H](O)C(=O)[C@@H]3[C@]2(C)CC[C@H](O)[C@]3(C)C(=O)OC)[C@H]1C | 0.244 µM | 0.687 µM
Cc1nnc(Nc2ccc(NC(=O)Nc3ccc(Cl)cc3)cc2)c2ccccc12 | 2.03 µM | 4.19 µM
CC(=O)ON1CCCC(P(=O)(OCCSC(=O)C(C)(C)C)OCCSC(=O)C(C)(C)C)C1=O (stereo not given) | 1.68 µM | 11.3 µM
COC(=O)[C@]12CC[C@@H](C)[C@H](C)[C@@H]1C1=CC[C@@H]3[C@@]4(C)C[C@@H](O)[C@H](O)[C@@](C)(CO)C4=CC[C@@]3(C)[C@]1(C)CC2 | 16.8 µM | 34.7 µM
Cc1nc(N)sc1N=Nc1ccccc1Br |  | > 75.9 µM
NS(=O)(=O)c1ccc(N=Nc2c(O)c(C(=O)O)cc3ccccc23)cc1 |  | > 100 µM
Cc1c(N(C)C)ccc2c(=O)c3cccc(CC(=O)O)c3oc12 |  | > 100 µM
CC(NCCC(c1ccccc1)c1ccccc1)c1ccccc1 (stereo not given) | 2.13 µM | 4.19 µM
C/C(N=NC(=S)N1CC2CCC(CC2)C1)=C1\C=CC=CN1O |  | 3.54 µM
O=C(Nc1ccc(Br)cc1F)c1cc(Cl)ccc1O | 0.481 µM | 3.19 µM
NC(N)=N/N=C/c1c(Cl)cccc1Cl | 21.8 µM | 50.9 µM
S=c1[nH]c(=S)c2cc3ccccc3nc2[nH]1 | 38 µM | > 100 µM
O=C(Nc1cccc(C(F)(F)F)c1)c1ccc(NC2=C(Cl)C(=O)N(Cc3ccc(Cl)cc3Cl)C2=O)cc1 | 2.72 µM | 12.4 µM
CCC[CH2][Sn]([CH2]CCC)([O]C(=O)c1ccc(OC)c(OC)c1OC)[O][Sn]([CH2]CCC)([CH2]CCC)[O]C(=O)c1ccc(OC)c(OC)c1OC | 0.112 µM | 0.554 µM

Tested on: RPMI-8226 leukemia
Test: NCI tumour cell line growth inhibition, 48 h

Compound | GI50 | TGI
N#Cc1nn(-c2cc(=O)[nH]c3ccc(Cl)cc23)c(N)c1C#N | > 100 µM | > 100 µM
NNC(=O)CNc1cccc(Br)c1 |  | > 100 µM
NC(N)=NCCCC(=O)O |  | > 100 µM
CCN1CCN(c2cc(C)c3cc(NC(=O)c4ccc(OC)c(OC)c4)ccc3n2)CC1 | 2.68 µM | 29.4 µM
COC(=O)c1c2c(c(C)[n+]([O-])c1C)C(=O)C=C(NCc1ccc(F)cc1)C2=O | 1.25 µM | 4.81 µM
CCCC(=O)Nc1cn(COC)c(C(=O)N2C[C@@H]3C[C@]34C2=CC(=O)c2[nH]cc(C)c24)n1 | 1.87 µM | 41.5 µM and 6.75 µM
CNCCOC(=O)/C=C1\CC[C@H]2[C@@H]([C@@H](O)C(=O)[C@@H]3[C@]2(C)CC[C@H](O)[C@]3(C)C(=O)OC)[C@H]1C | 0.454 µM | 2.65 µM
Cc1nnc(Nc2ccc(NC(=O)Nc3ccc(Cl)cc3)cc2)c2ccccc12 | 2.6 µM | 6.48 µM
CC(=O)ON1CCCC(P(=O)(OCCSC(=O)C(C)(C)C)OCCSC(=O)C(C)(C)C)C1=O (stereo not given) | 1.45 µM | 11.3 µM
COC(=O)[C@]12CC[C@@H](C)[C@H](C)[C@@H]1C1=CC[C@@H]3[C@@]4(C)C[C@@H](O)[C@H](O)[C@@](C)(CO)C4=CC[C@@]3(C)[C@]1(C)CC2 | 13.9 µM | 34.6 µM
Cc1nc(N)sc1N=Nc1ccccc1Br |  | > 100 µM
NS(=O)(=O)c1ccc(N=Nc2c(O)c(C(=O)O)cc3ccccc23)cc1 |  | > 100 µM
Cc1c(N(C)C)ccc2c(=O)c3cccc(CC(=O)O)c3oc12 |  | > 100 µM
CC(NCCC(c1ccccc1)c1ccccc1)c1ccccc1 (stereo not given) | 1.92 µM | 4.83 µM
C/C(N=NC(=S)N1CC2CCC(CC2)C1)=C1\C=CC=CN1O |  | > 39.2 µM
O=C(Nc1ccc(Br)cc1F)c1cc(Cl)ccc1O | 0.342 µM | 1.88 µM
NC(N)=N/N=C/c1c(Cl)cccc1Cl | 40.7 µM | > 100 µM
S=c1[nH]c(=S)c2cc3ccccc3nc2[nH]1 | 7.96 µM | > 100 µM
O=C(Nc1cccc(C(F)(F)F)c1)c1ccc(NC2=C(Cl)C(=O)N(Cc3ccc(Cl)cc3Cl)C2=O)cc1 | 2.29 µM | 5.08 µM
CCC[CH2][Sn]([CH2]CCC)([O]C(=O)c1ccc(OC)c(OC)c1OC)[O][Sn]([CH2]CCC)([CH2]CCC)[O]C(=O)c1ccc(OC)c(OC)c1OC | 0.104 µM | 0.846 µM
